Test results taken from publication PMC6272192, “Synthesis and Biological Evaluation of N-Alkyl-3-(alkylamino)-pyrazine-2-carboxamides” (Molecules, 2015).
pIC50: −log10 of the molar value. Values after ≈ are worked out from the molar mass of the structure shown.

What was measured:
[1] = test system: photosystem 2 photosynthetic electron transport (PET) in spinach chloroplasts; experiment: inhibition of photosynthetic electron transport (PET) in spinach chloroplasts (Hill reaction, DCPIP); format: biochemical, Spinacia oleracea L.; conditions: spinach chloroplasts, DCPIP photoreduction; read-out: IC50 (PET-inhibiting activity)
Method: Chloroplasts were prepared from spinach (Spinacia oleracea L.) according to Masarovicova and Kralova. The inhibition of photosynthetic electron transport (PET) in spinach chloroplasts was determined spectrophotometrically (Genesys 6, Thermo Electron Scientific Instruments, Madison, WI, USA), using an artificial electron acceptor 2,6-dichlorophenol-indophenol (DCPIP) according to Kralova et al., and the rate of photosynthetic electron transport (PET) was monitored as a photoreduction of DCPIP. The measurements were carried out in phosphate buffer (0.02 mol/L, pH 7.2) containing sucrose (0.4 mol/L), MgCl2 (0.005 mol/L) and NaCl (0.015 mol/L). The chlorophyll content was 30 mg/L in these experiments and the samples were irradiated (~100 W/m^2 with 10 cm distance) with a halogen lamp (250 W) using a 4 cm water filter to prevent warming of the samples (suspension temperature 22 °C). The studied compounds were dissolved in DMSO due to their limited water solubility. […] The inhibitory efficiency of the studied compounds was expressed by IC50 values, i.e., by molar concentration of the compounds causing 50% PET inhibition relative to the untreated control.

Staphylococcus aureus = experiment: in vitro antibacterial activity, microdilution broth method; format: cell-based
Method: Microdilution broth method. Antibacterial evaluation was performed against bacterial strains from Czech Collection of Microorganisms (Brno, Czech Republic) (Staphylococcus aureus CCM 4516/08, Escherichia coli CCM 4517, Pseudomonas aeruginosa CCM 1961) or clinical isolates from Department of Clinical Microbiology, University Hospital and Faculty of Medicine in Hradec Králové, Charles University in Prague, Czech Republic (Staphylococcus aureus H 5996/08-methicilin resistant (MRSA), Staphylococcus epidermidis H 6966/08, Enterococcus sp. J 14365/08, Klebsiella pneumoniae D 11750/08, Klebsiella pneumoniae J 14368/08-ESBL positive). All strains were subcultured on Mueller-Hinton agar (MHA) (Difco/Becton Dickinson, Detroit, MI, USA) at 35 °C and maintained on the same medium at 4 °C. The compounds were dissolved in DMSO, and the antibacterial activity was determined in Mueller-Hinton liquid broth (Difco/Becton Dickinson), buffered to pH 7.0. Controls consisted of medium and DMSO alone. […] The standards were neomycin, bacitracin, penicillin G, ciprofloxacin and phenoxymethylpenicilin.

[2] = determination of lipophilicity by HPLC (log k); conditions: HPLC capacity factor, C18 column, MeOH 70% / H2O 30%
Source text: Instrumentation: Agilent Technologies 1200 SL liquid chromatograph with Diode-array Detector SL G1315C (Agilent Technologies Inc., Colorado Springs, CO, USA); pre-column ZORBAX XDB-C18 5 μm, 4 × 4 mm, Part No. 7995118-504 (Agilent Technologies Inc.) and column ZORBAX Eclipse XDB-C18 5 μm, 4.6 × 250 mm, Part No. 7995118-585 (Agilent Technologies Inc.). The separation process was controlled by Agilent ChemStation, version B.04.02 extended by spectral module (Agilent Technologies Inc.). Mobile phase consisted of MeOH (HPLC grade, 70%) and H2O (HPLC-Milli-Q Grade, 30%). Conditions: Flow rate 1.0 mL/min, sample injection volume 20 μL, column temperature 30 °C, detection wavelength 210 nm, monitor wavelength 270 nm. Retention times (tR) were measured in minutes. The dead time of the system (tD) was determined as the retention time of KI methanol solution. Capacity factors k for individual compounds were calculated according to the formula k = (tR − tD)/tD. Log k, calculated from the capacity factor k, is used as the lipophilicity index converted to log scale.

M. tuberculosis H37Rv = experiment: in vitro antimycobacterial activity, microdilution panel method; format: cell-based, Mycobacterium tuberculosis; conditions: Mycobacterium tuberculosis, 336 h, Middlebrook 7H9, Alamar Blue after 14 days, read-out: MIC M. tuberculosis
[3] = test system: aromatic amino acids in spinach chloroplasts; experiment: fluorescence of aromatic amino acids in spinach chloroplasts; format: biochemical, Spinacia oleracea L.; conditions: excitation 275 nm, chlorophyll 10 mg/L
Method: The fluorescence emission spectra of aromatic amino acids (AAA) in spinach chloroplasts were recorded on fluorescence spectrophotometer F-2000 (Hitachi, Tokyo, Japan) using excitation wavelength λex = 275 nm for monitoring AAA fluorescence, excitation slit 20 nm and emission slit 10 nm. The samples were kept in the dark for 2 min before measuring. The phosphate buffer used for dilution of the chloroplast suspension was the same as described above. Due to low aqueous solubility the compounds were added to chloroplast suspension in DMSO solution. The DMSO concentration in all samples was the same as in the control (10%). The chlorophyll concentration in chloroplast suspension was 10 mg/L.

Compound | pIC50 [1] | MIC (Staphylococcus aureus) [µM] | log k [2] | MIC (M. tuberculosis H37Rv) [µg/mL] | slope of dependence of aromatic amino acid fluorescence intensity (% of control) on compound concentration [3]
CCCCCCCCNc1nccnc1C(=O)NC [Compound 16, N-Methyl-3-(octylamino)pyrazine-2-carboxamide] | 4.19 | 250 (≈ 66.1 µg/mL) | 1.359 | 25 (≈ 94.6 µM) | −0.668
CCCCCNC(=O)c1nccnc1NCCCCC [Compound 27, N-Pentyl-3-(pentylamino)pyrazine-2-carboxamide] | 3.98 | – | 1.557 | > 100 | −0.211
